Laboratory results taken from ChEMBL document CHEMBL5550147, “Supramolecular prodrug of SN38 based on endogenous albumin and SN38 prodrug modified with semaglutide side chain to improve the tumor distribution” (Bioorg Med Chem, 2024).
Blank lines part the entries; values can stand above or below the compound they belong to. Calls of active or inactive are those of the source. The calls are words filed in the database; no cut-off is given here.

Key:
[1] = Drug distribution in lung of nude mouse xenografted with human HT-29 cells at 15 mg/kg, iv measured for 1 to 48 hrs by HPLC analysis; type: ADME, organism-based; settings: in vivo, time 1-48 hrs
[2] = tested on: HT-29; assay: Anti-tumor activity against human HT-29 cells xenografted in nude mouse at 15 mg/kg, iv measured for 35 days relative to control; type: functional; settings: HT-29, 840 h, time 35 day, read-out: TGI
[3] = Stability of compound in PBS at pH 6.5 at 50 uM by HPLC analysis; type: physicochemical; settings: buffer, pH 6.5, 50 µM
[4] = Stability of compound in PBS at pH 7.4 at 50 uM by HPLC analysis; type: physicochemical; settings: buffer, pH 7.4, 50 µM
[5] = Stability in mouse plasma assessed as half life by HPLC analysis; type: ADME, cell-free
[6] = Prodrug conversion in mouse plasma assessed as drug release incubated for 24 hrs by HPLC analysis; type: ADME, cell-free
[7] = tested on: A549; assay: Cytotoxicity against human A549 cells incubated for 48 hrs by MTT assay; type: functional, cell-based
[8] = tested on: HepG2; assay: Cytotoxicity against human HepG2 cells incubated for 48 hrs by MTT assay; type: functional, cell-based
[9] = tested on: HT-29; assay: Cytotoxicity against human HT-29 cells incubated for 48 hrs by MTT assay; type: functional, cell-based
[10] = tested on: MG-63; assay: Cytotoxicity against human MG-63 cells incubated for 48 hrs by MTT assay; type: functional, cell-based
[11] = tested on: MIA PaCa-2; assay: Cytotoxicity against human MIA PaCa-2 cells incubated for 48 hrs by MTT assay; type: functional, cell-based
[12] = Cmax in BALB/c mouse at 28 mg/kg, iv measured for 1 to 72 hrs by HPLC analysis; type: ADME, organism-based; settings: in vivo, time 1-72 hrs
[13] = Half life in BALB/c mouse at 28 mg/kg, iv measured for 1 to 72 hrs by HPLC analysis; type: ADME, organism-based; settings: in vivo, time 1-72 hrs
[14] = Volume of distribution in BALB/c mouse at 28 mg/kg, iv measured for 1 to 72 hrs by HPLC analysis; type: ADME, organism-based; settings: in vivo, time 1-72 hrs
[15] = Clearance in BALB/c mouse at 28 mg/kg, iv measured for 1 to 72 hrs by HPLC analysis; type: ADME, organism-based; settings: in vivo, time 1-72 hrs
[16] = AUC (0 to infinity) in BALB/c mouse at 28 mg/kg, iv measured for 1 to 72 hrs by HPLC analysis; type: ADME, organism-based; settings: in vivo, time 1-72 hrs
[17] = Drug distribution in lung of nude mouse xenografted with human HT-29 cells at 17.9 mg/kg, iv measured for 1 to 48 hrs by HPLC analysis; type: ADME, organism-based; settings: in vivo, time 1-48 hrs
[18] = Drug accumulation in lung of nude mouse xenografted with human HT-29 cells assessed as fold change in free SN38 at 28 mg/kg, iv measured for 50 hrs by HPLC analysis relative to Irinotecan; type: ADME, organism-based; settings: in vivo
[19] = Drug accumulation in human HT-29 cells xenografted in nude mouse assessed as fold increase at 28 mg/kg, iv measured for 1 hr by HPLC analysis relative to Irinotecan; type: ADME, organism-based; settings: in vivo
[20] = Drug accumulation in human HT-29 cells xenografted in nude mouse assessed as fold increase at 28 mg/kg, iv measured for 6 hrs by HPLC analysis relative to Irinotecan; type: ADME, organism-based; settings: in vivo
[21] = Drug accumulation in human HT-29 cells xenografted in nude mouse assessed as fold increase at 28 mg/kg, iv measured for 24 hrs by HPLC analysis relative to Irinotecan; type: ADME, organism-based; settings: in vivo
[22] = Drug accumulation in human HT-29 cells xenografted in nude mouse assessed as fold increase at 28 mg/kg, iv measured for 48 hrs by HPLC analysis relative to Irinotecan; type: ADME, organism-based; settings: in vivo
[23] = tested on: HT-29; assay: Anti-tumor activity against human HT-29 cells xenografted in nude mouse at 28 mg/kg, iv measured for 35 days relative to control; type: functional; settings: HT-29, 840 h, time 35 day, read-out: TGI
[24] = Toxicity in nude mouse xenografted with human HT-29 cells assessed as body weight change at 28 mg/kg, iv measured for 35 days; type: organism-based; settings: in vivo, 840 h, time 35 day

- Drug uptake [1]: Active
SMILES: CCc1c2c(nc3ccc(OC(=O)N4CCC(N5CCCCC5)CC4)cc13)-c1cc3c(c(=O)n1C2)COC(=O)[C@]3(O)CC [IRINOTECAN]
- inhibition in vivo at 15 mg/kg [2]: 62.3%

- Stability [3]: Stable
- Stability [4]: Stable
- half-life [5]: 14 h
- Drug metabolism [6]: Metabolite_Detected
- Cmax [12]: 3670 ng/mL
- half-life [13]: 4.37 h
- Vd [14]: 0.191 L
- CL [15]: 0.517 mL/min/kg
- AUC [16]: 23130 ng·h/mL
- Drug uptake [17]: Active
- fold change (FC) [18]: 0.3
- fold change (FC) [19]: 2.5
- fold change (FC) [20]: 2.1
- fold change (FC) [21]: 1.6
- fold change (FC) [22]: 7.8
SMILES: CCc1c2c(nc3ccc(O)cc13)-c1cc3c(c(=O)n1C2)COC(=O)[C@@]3(CC)OC(=O)CNC(=O)CCCCCCCCCCCCCCCCC(=O)O
- Activity [7]: Active
- Activity [8]: Active
- Activity [9]: Active
- Activity [10]: Active
- Activity [11]: Active
- inhibition in vivo at 28 mg/kg [23]: 71%
- Activity [24]: Non-Toxic
